The values that follow come from patent US20230065953A1, “NOVEL HETEROARYL-TRIAZOLE COMPOUNDS AS PESTICIDES” (Bayer Aktiengesellschaft, priority 2019, published 2023).

Common to all, as to format: in vivo
Experiment [1] relates to adult engorged female ticks (Rhipicephalus microplus). As to the kind of experiment: Rhipicephalus (Boophilus) microplus injection test. Particulars: 168 h, 4 μg/animal, egg deposition after 7 days, read-out: efficacy (infertile eggs). The procedure, abridged:
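Five adult engorged female ticks each injected into the abdomen with 1 μL of compound in DMSO, then kept in a climate chamber. Fertile egg deposition assessed after 7 days, with unclear eggs held until hatching around 42 days; efficacy 100% means all eggs infertile, 0% all fertile.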

The test system of experiment [2] is Rhipicephalus microplus larvae (strain Parkhurst, resistant against synthetic pyrethroids). As to the kind of experiment: Rhipicephalus (Boophilus) microplus in-vitro contact test, larval cattle tick. To be noted: 5 μg/cm^2 (=500 g/ha), after 48 hours, read-out: efficacy (larvae dead or moribund). The gist of the method:
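Compound in acetone coated onto the inner walls of glass tubes (900 ppm giving 5 μg/cm^2), solvent evaporated, then 20–50 larvae added and held at 27 °C, 85% RH. After 48 h, efficacy scored from negative geotactic behaviour as % dead or moribund larvae.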

Experiment [3] has as its system green peach aphid (Myzus persicae). As to the kind of experiment: Myzus persicae oral test. To be noted: 120 h. The gist of the method: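 Compound was dissolved in acetone, diluted with water and mixed into IPL41 insect medium with sugar under a parafilm seal. A mixed aphid population fed through the parafilm, and mortality (%) was scored after 5 days.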
For experiment [4], the system named is larvae of the banded cucumber beetle (Diabrotica balteata). The experiment in a line: Diabrotica balteata spray test. To be noted: 168 h, 100 g/ha (=32 μg/well), wheat seeds, after 7 days, read-out: efficacy (seedling growth). The gist of the method: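 Wheat seeds germinated 1 day on agar were sprayed with compound in acetone/dimethylformamide with alkylarylpolyglycol ether emulsifier, diluted in emulsifier-containing water. Each unit then received 10-20 larvae, and % efficacy was scored after 7 days.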

Experiment [5] deals with adult brown dog ticks (Rhipicephalus sanguineus). As to the kind of experiment: Rhipicephalus sanguineus in-vitro contact test with adult brown dog ticks. Particulars: 5 μg/cm^2 (=500 g/ha), after 48 hours, read-out: efficacy (ticks dead or moribund). How it is done: Rhipicephalus sanguineus—In-Vitro Contact Tests with Adult Brown Dog Ticks
(§1) 9 mg compound is solved in 1 mL acetone and diluted with acetone to the desired concentration. 250 μL of the test solution is filled in 25 mL glass test tubes and homogeneously distributed on the inner walls by rotation and tilting on a shaking device (2 h at 30 rpm). With a compound concentration of 900 ppm, an inner surface of 44.7 cm^2 and a homogeneous distribution, a dose of 5 μg/cm^2 is achieved.
After the solvent has evaporated, each test tube is filled with 5-10 adult brown dog ticks (Rhipicephalus sanguineus), closed with a perforated lid and incubated in a lying position at room temperature and relative humidity. After 48 hours efficacy is determined. The ticks are patted on the ground of the tubes and are incubated on a heating plate at 45-50° C. for at most 5 minutes. Immotile or uncoordinated moving ticks, which are not able to escape the heat by climbing upwards, are marked as dead or moribund.
An efficacy of 100% means all ticks are dead or moribund; 0% means no ticks are dead or moribund.

Experiment [6] has as its system adult unfed cat fleas (Ctenocephalides felis). The experiment in a line: Ctenocephalides felis oral test. Particulars: 48 h. The procedure, abridged: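 About 20 adult unfed fleas fed through parafilm on cattle blood containing compound (DMSO stock diluted in blood), blood held at 37 °C and fleas at room temperature. Mortality (%) scored after 2 days.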
Experiment [7] concerns fall armyworm larvae (Spodoptera frugiperda). As to the kind of experiment: Spodoptera frugiperda spray test (maize leaf sections). To be noted: 168 h. The gist of the method:
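Maize leaf sections sprayed with compound in acetone/dimethylformamide, diluted in water with 1000 ppm alkylarylpolyglycol ether emulsifier. Dried sections infested with fall armyworm larvae. Mortality (%) scored after 7 days; 100% = all caterpillars killed.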

Experiment [8] has as its system adult cat fleas (Ctenocephalides felis). The experiment in a line: Ctenocephalides felis in-vitro contact test, adult cat flea. To be noted: 5 μg/cm^2 (=500 g/ha), after 48 hours. On the procedure:
Ctenocephalides felis—In-Vitro Contact Tests Adult Cat Flea
as §1
After the solvent has evaporated, each test tube is filled with 5-10 adult cat fleas (Ctenocephalides felis), closed with a perforated lid and incubated in a lying position at room temperature and relative humidity. After 48 hours efficacy is determined. The fleas are patted on the ground of the tubes and are incubated on a heating plate at 45-50° C. for at most 5 minutes. Immotile or uncoordinated moving fleas, which are not able to escape the heat by climbing upwards, are marked as dead or moribund.
An efficacy of 100% means all fleas are dead or moribund; 0% means no fleas are dead or moribund.

Experiment [9] concerns green peach aphid (Myzus persicae). As to the kind of experiment: Myzus persicae spray test. Particulars: foliar, 120 h, Chinese cabbage leaf disks, after 5 days. The procedure, abridged: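 Chinese cabbage leaf discs infested with all instars of the aphid were sprayed with compound prepared in acetone/DMF and diluted in water containing 1000 ppm emulsifier. Mortality (%) was scored after 5 days, 100% meaning all aphids killed and 0% none.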

The test system of experiment [10] is larvae of the southern green stink bug (Nezara viridula). The experiment in a line: Nezara viridula spray test. Particulars: in Hordeum vulgare, 96 h. The gist of the method:
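Barley plants sprayed with compound in acetone/dimethylformamide, diluted in water with 1000 ppm alkylarylpolyglycol ether emulsifier, then infested with Nezara viridula larvae. Percent mortality read after 4 days (100% = all killed, 0% = none).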

The term mortality denotes the percentage killed. A high value points to a strong lethal effect. For `Cc1nc([C@H](C)NC(=O)c2cc(C(F)(F)F)cc(C(F)(F)F)c2)n(-c2ncc(C(=O)N(C)C3CC3)s2)n1` [I-7], the pest or weed control at 0.004 mg in experiment [1] is 100%. Further, the pest or weed control at 5 µg/cm2 in experiment [2] is 100%. This compound also returned a mortality at 4 ppm in [3] of 100%. Further, the pest or weed control at 32 µg/disc, 100 g/ha in experiment [4] amounted to 100%. For the same compound, the pest or weed control at 5 µg/cm2, 500 g/ha in experiment [5] turned out to be 100%. Further, the mortality at 100 ppm in [6] came out at 100%. The compound further registered a mortality at 100 g/ha in experiment [7] of 100%.
Regarding `Cc1nc([C@H](C)NC(=O)c2cc(C(F)(F)F)cc(C(F)(F)F)c2)n(-c2ncc(C(=O)N(C)CC(C)C)s2)n1` [I-8], the pest or weed control at 0.004 mg in experiment [1] was found to be 100%. Besides, the pest or weed control at 5 µg/cm2 in [2] stood at 100%. The mortality at 4 ppm in experiment [3] came out at 100%. Also, in experiment [4], the pest or weed control at 32 µg/disc, 100 g/ha is 100%. Also, the pest or weed control at 5 µg/cm2, 500 g/ha in [5] came out at 100%. This compound also came in with a mortality at 100 ppm in experiment [6] of 100%. The compound further registered a mortality at 100 g/ha in experiment [7] of 100%.
`Cc1nc([C@H](C)NC(=O)c2cc(C(F)(F)F)cc(C(F)(F)F)c2)n(-c2ncc(C(=O)N(C)CC(F)(F)F)s2)n1` [I-11]: in [1], the pest or weed control at 0.004 mg stood at 100%. Also, in [2], the pest or weed control at 5 µg/cm2 came to 100%. In experiment [3], this compound came in with a mortality at 4 ppm of 100%. Besides, the pest or weed control at 32 µg/disc, 100 g/ha in [4] was determined as 100%. In experiment [5], the pest or weed control at 5 µg/cm2, 500 g/ha was 100%. Moreover, in experiment [6], the mortality at 100 ppm was 100%. Also, the mortality at 100 g/ha in experiment [7] amounted to 100%.
For `Cc1nc([C@H](C)NC(=O)c2cc(Br)cc(C#N)c2)n(-c2ncc(C#N)s2)n1` [I-15], the pest or weed control at 0.004 mg in experiment [1] is 100%. In [8], the “efficacy (fleas dead or moribund)” value was determined as 100%. For the same compound, the pest or weed control at 5 µg/cm2 in [2] was found to be 90%. For the same compound, the pest or weed control at 32 µg/disc, 100 g/ha in experiment [4] was 100%. The pest or weed control at 5 µg/cm2, 500 g/ha in experiment [5] was 100%. Further, in experiment [6], the mortality at 100 ppm amounted to 100%. This compound also returned a mortality at 100 g/ha in [7] of 83%.
On to `CC(NC(=O)c1cc(OC(F)(F)F)cc(C2CC2)c1)c1ncnn1-c1ncc(C#N)s1` (stereo not drawn) [I-30], for which, in experiment [1], the pest or weed control at 0.004 mg worked out at 100%. In [2], the pest or weed control at 5 µg/cm2 came out at 100%. Also, the mortality at 4 ppm in experiment [3] is 100%. In addition, in experiment [4], the pest or weed control at 32 µg/disc, 100 g/ha came out at 100%. The pest or weed control at 5 µg/cm2, 500 g/ha in experiment [5] came to 100%. In experiment [6], this compound displayed a mortality at 100 ppm of 100%. For the same compound, the mortality at 100 g/ha in experiment [7] turned out to be 100%.
As to `C[C@H](NC(=O)c1cc(I)cc(OC(F)F)c1)c1ncnn1-c1ncc(C#N)s1` [I-38], the “efficacy (fleas dead or moribund)” value in experiment [8] is listed as 90%. Also, the pest or weed control at 5 µg/cm2 in [2] was found to be 100%. Moreover, in experiment [4], the pest or weed control at 32 µg/disc, 100 g/ha was 100%. For the same compound, the pest or weed control at 5 µg/cm2, 500 g/ha in [5] was 80%.
With `CNC(=O)c1cnc(-n2nc(C)nc2[C@H](C)NC(=O)c2cc(Cl)cc(C(F)(F)F)c2)s1` [I-69], in [1], the pest or weed control at 0.004 mg was 100%. Also, in [8], the “efficacy (fleas dead or moribund)” value was 90%. In addition, the pest or weed control at 5 µg/cm2 in [2] came out at 80%. For the same compound, the mortality at 4 ppm in experiment [3] was 100%. Further, in experiment [4], the pest or weed control at 32 µg/disc, 100 g/ha stood at 100%. The pest or weed control at 5 µg/cm2, 500 g/ha in [5] was 80%. The values for the mortality at 100 g/ha in experiment [7] and in [9] were 100% and 90%, respectively.
On to `Cc1nc([C@H](C)NC(=O)c2cc(Br)cc(Br)c2)n(-c2ncc(C(=O)N(C)CC#N)s2)n1` [I-72], for which the “efficacy (fleas dead or moribund)” value in experiment [8] worked out at 80%. The pest or weed control at 5 µg/cm2 in experiment [2] is 100%. Further, the mortality at 4 ppm in [3] stood at 100%. For the same compound, the pest or weed control at 32 µg/disc, 100 g/ha in experiment [4] stood at 100%. The pest or weed control at 5 µg/cm2, 500 g/ha in [5] amounted to 100%. Also, the mortality at 100 g/ha in [7] was determined as 100%.
On to `Cc1nc([C@H](C)NC(=O)c2cc(Br)cc(OC(F)(F)F)c2)n(-c2ncc(C(=O)N(C)CC#N)s2)n1` [I-125], for which the “efficacy (fleas dead or moribund)” value in experiment [8] is 100%. Further, the pest or weed control at 5 µg/cm2 in experiment [2] came to 100%. The pest or weed control at 32 µg/disc, 100 g/ha in experiment [4] was 100%. Besides, the mortality at 500 g/ha in experiment [10] amounted to 100%. In [5], the pest or weed control at 5 µg/cm2, 500 g/ha stood at 80%. Also, the mortality at 100 g/ha was 100% in [7] and 90% in [9].
